Laboratory results published in patent US5710150A, “Benzazepine derivative, pharmaceutical composition thereof, and intermediate thereof” (Yamanouchi Pharmaceutical Co., Ltd., priority 1993, dated 1998).
pKi: −log10 of the molar value. Structures can show the parent of a compound that is named as a salt. Where two headings read alike, the source gives them in different places.

Assays:
[1] = target: T1, arginine vasopressin V1 receptor (Rattus norvegicus, UniProt P30560); assay: V1 receptor binding assay ([3H]-Arg-vasopressin, rat liver membrane); conditions: for antagonism on V1 receptor (in words): compared with OPC-31260 and OPC-21268; for Ki: read-out: Binding activity on arginine vasopressin V1 receptor (pKi) (converted)
T1 construct: A rat liver membrane sample was prepared; from tissue; host or cells: rat liver membranes
Experimental: (1) V1 receptor binding assay
A rat liver membrane sample was prepared in accordance with the method of Nakamura et al. (J. Biol. Chem., 258, 9283 (1983)), and [^3 H]-Arg-vasopressin (2 nM, specific activity=75.8 Ci/mmol), 70 μg of the membrane sample and each drug to be tested (10^-8 to 10^-4 M) were incubated at 30° C. for 30 minutes in 250 μl of 100 mM Tris-HCl buffer (pH=8.0) containing 5 mM of magnesium chloride, 1 mM of ethylenediaminetetraacetic acid (EDTA) and 0.1% of bovine serum albumin (BSA). Thereafter, the incubation solution was sucked off using a cell harvester and free ligand and excess buffer were removed by passing the reaction mixture through a glass filter (GF/B), thereby trapping receptor-bound labeled ligand on the glass filter. The glass filter was taken out, thoroughly dried and then mixed with a liquid scintillation cocktail, and the amount of the membrane-bound [^3 H]-vasopressin was measured using a liquid scintillation counter to calculate the inhibition ratio by the following formula. [formula] C1 : amount of [^3 H]-vasopressin bound to the membrane in the coexistence of known amount of each drug to be tested and [^3 H]-vasopressin
C0 : amount of [^3 H]-vasopressin bound to the membrane when the drug to be tested was not added
B1 : amount of [^3 H]-vasopressin bound to the membrane in the presence of excess vasopressin (10^-6 M)
[formula] [L]: concentration of radioactive ligand KD: dissociation constant calculated from Scatchard plot
Negative logarithm of the thus calculated Ki value was used as pKi value.

[2] = target: arginine vasopressin V2 receptor (Oryctolagus cuniculus, UniProt G1TA00); assay: V2 receptor binding assay ([3H]-Arg-vasopressin, rabbit renal medulla membrane); conditions: for antagonism on V2 receptor (in words): compared with OPC-31260 and OPC-21268; for Binding activity on arginine vasopressin V2 receptor (pKi): rabbit renal medulla membrane, [3H]-Arg-vasopressin 2 nM
[3] = rat liver membrane, [3H]-Arg-vasopressin 2 nM, 30° C., 30 minutes, pH 8.0

T1 sequence (P30560 whole entry): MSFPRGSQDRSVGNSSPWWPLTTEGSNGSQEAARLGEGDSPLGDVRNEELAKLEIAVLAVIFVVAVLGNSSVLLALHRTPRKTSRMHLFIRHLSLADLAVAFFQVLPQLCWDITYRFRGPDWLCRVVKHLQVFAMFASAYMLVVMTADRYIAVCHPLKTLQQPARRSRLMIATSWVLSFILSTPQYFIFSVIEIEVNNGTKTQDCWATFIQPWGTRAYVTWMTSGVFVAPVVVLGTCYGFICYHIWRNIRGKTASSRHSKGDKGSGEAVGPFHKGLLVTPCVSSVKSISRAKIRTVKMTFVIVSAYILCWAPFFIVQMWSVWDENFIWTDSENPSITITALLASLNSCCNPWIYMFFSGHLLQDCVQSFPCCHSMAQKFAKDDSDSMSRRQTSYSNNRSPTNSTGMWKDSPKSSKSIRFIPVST
arginine vasopressin V2 receptor, sequence (G1TA00 78-446): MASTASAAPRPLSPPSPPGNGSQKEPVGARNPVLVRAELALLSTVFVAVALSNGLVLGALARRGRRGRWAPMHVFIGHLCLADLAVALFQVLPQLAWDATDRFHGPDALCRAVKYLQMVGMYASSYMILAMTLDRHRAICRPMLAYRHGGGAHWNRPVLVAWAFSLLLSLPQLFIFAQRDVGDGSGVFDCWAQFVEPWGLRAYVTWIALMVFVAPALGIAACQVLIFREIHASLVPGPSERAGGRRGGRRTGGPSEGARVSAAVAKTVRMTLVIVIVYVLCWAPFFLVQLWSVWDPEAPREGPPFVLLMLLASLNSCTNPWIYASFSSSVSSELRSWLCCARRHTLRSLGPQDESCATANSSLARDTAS

Compound | Ki [1, 3] [pM] | Binding activity on arginine vasopressin V2 receptor (pKi) [2] | other results
Cl.O=C(/C=C1/c2ccccc2N(C(=O)c2ccc(NC(=O)c3ccccc3-c3ccccc3)cc2)CCC1(F)F)NC1CN2CCC1CC2 (racemic) [Example 85, (±)-(Z)-4'-[[4,4-difluoro-5-[[N-(3-quinuclidinyl)carbamoyl]methylene]-2,3,4,5-tetrahydro-1H-1-benzazepin-1-yl]carbonyl]-2-phenylbenzanilide hydrochloride] | 95.5 | 9.97 | antagonism on V1 receptor (in words) [1]: excellent antagonisms on both V1 and V2 receptors; antagonism on V2 receptor (in words) [2]: excellent antagonisms on both V1 and V2 receptors
NC(=O)/C=C1/c2ccccc2N(C(=O)c2ccc(NC(=O)c3ccccc3-c3ccccc3)cc2)CCC1(F)F [Example 121, (Z)-4'-[(5-carbamoylmethylene-4,4-difluoro-2,3,4,5-tetrahydro-1H-1-benzazepin-1-yl]carbonyl]-2-phenylbenzanilide] | 295 | 8.59 | 
CN1CCC(N(C)C(=O)/C=C2/c3ccccc3N(C(=O)c3ccc(NC(=O)c4ccccc4-c4ccccc4)cc3)CCC2(F)F)CC1 [Example 84, (Z)-4'-[[4,4-difluoro-5-[[N-methyl-N-(1-methyl-4-piperidyl)carbamoyl]methylene]-2,3,4,5-tetrahydro-1H-1-benzazepin-1-yl]carbonyl]-2-phenylbenzanilidehydrochloride] | 102 |  | 
CCNC(=O)/C=C1/c2ccccc2N(C(=O)c2ccc(NC(=O)c3ccccc3-c3ccccc3)cc2)CCC1(F)F [Example 123, (Z)-4'-[[5-(N-ethylcarbamoylmethylene)-4,4-difluoro-2,3,4,5-tetrahydro-1H-1-benzazepin-1-yl]carbonyl]-2-phenylbenzanilide] | 200 | 9.16 | 
Cc1ccc(-c2ccccc2C(=O)Nc2ccc(C(=O)N3CCC(F)(F)/C(=C\C#N)c4ccccc43)cc2)cc1 [Compound 22 (a), 4'-[(5-cyanomethylene-4,4-difluoro-2,3,4,5-tetrahydro-1H-1-benzazepin-1-yl)carbonyl]-2-(4methylphenyl)benzanilide] |  | 8.36 | pKi [1]: 8.02
O=C(/C=C1/c2ccccc2N(C(=O)c2ccc(NC(=O)c3ccccc3-c3ccccc3)cc2)CCC1(F)F)NC1CC1 [Example 126] | 288 | 8.22 | 
Cc1ccsc1C(=O)Nc1ccc(C(=O)N2CCC(F)(F)/C(=C\C(=O)N3CCC(N(C)C)CC3)c3ccccc32)cc1 [Example 111, (Z)-N-[4-[[4,4-difluoro-5-[[(4-dimethylaminopiperidino)carbonyl]methylene]-2,3,4,5-tetrahydro-1H-1-benzazepin-1-yl]carbonyl]phenyl]-3-methylthiophene-2-carboxyamide hydrochloride] |  | 7.79 | pKi [1]: 9.25
O=C(Nc1ccc(C(=O)N2CCC(F)(F)/C(=C\C(=O)N3CCCC3)c3ccccc32)cc1)c1ccccc1-c1ccccc1 [Example 131] | 708 | 7.99 | 
COCCNC(=O)/C=C1/c2ccccc2N(C(=O)c2ccc(NC(=O)c3ccccc3-c3ccccc3)cc2)CCC1(F)F [Example 135, (Z)-4'-[[4,4-difluoro-5-[N-(2-methoxyethyl)carbamoylmethylene]-2,3,4,5-tetrahydro-1H-1-benzazepin-1-yl]carbonyl]-2-phenylbenzanilide] | 195 | 8.11 | 
O=C(Nc1ccc(C(=O)N2CCC(F)(F)/C(=C\C(=O)N3CCCNCC3)c3ccccc32)cc1)c1ccccc1-c1ccccc1 [Example 28, (Z)-4'-[[[5-[(hexahydro-1,4-diazepin-1-yl)carbonyl]methylene]-4,4-difluoro-2,3,4,5-tetrahydro-1H-1-benzazepin-1-yl]carbonyl]-2-phenylbenzanilide hydrochloride] | 83.2 | 9.37 | antagonism on V1 receptor (in words) [1]: excellent antagonisms on both V1 and V2 receptors; antagonism on V2 receptor (in words) [2]: excellent antagonisms on both V1 and V2 receptors
CCc1nccn1-c1ccccc1C(=O)Nc1ccc(C(=O)N2CCC(F)(F)/C(=C\C(=O)OC)c3ccccc32)cc1 [Example 42, methyl (Z)-[1-[4-[2-(2-ethyl-1H-imidazol-1yl)benzoyl]amino]benzoyl-4,4-difluoro-2,3,4,5-tetrahydro-1H-1-benzazepin-5-ylidene]acetate] | 1150 | 6.33 | V1 selectivity (in words) ([1]; V1 versus V2 receptor binding): excellent in V1 selectivity; V1 receptor antagonism compared with OPC-21268 (in words) ([1]; versus OPC-21268): markedly stronger V1 receptor antagonism than that of OPC-21268
O=C(/C=C1/c2ccccc2N(C(=O)c2ccc(NC(=O)c3ccccc3-c3ccccc3)cc2)CCC1(F)F)NCc1ccccc1 [Example 127, (Z)-4'-[[4,4-difluoro-5-[(N-benzylcarbamoyl)methylene]-2,3,4,5-tetrahydro-1H-1-benzazepin-1-yl]carbonyl]-2-phenylbenzanilide] | 1740 | 8.19 | 
CN(C)CC/C=C1\c2ccccc2N(C(=O)c2ccc(NC(=O)c3ccccc3-c3ccccc3)cc2)CCC1(F)F.Cl [Example 82, (E)-4'-[[4,4-difluoro-5-(3-dimethylaminopropylidene)-2,3,4,5-tetrahydro-1H-1-benzazepin-1-yl]carbonyl]-2-phenylbenzanilide hydrochloride] | 2630 | 8.13 | 
CNC(=O)/C=C1/c2ccccc2N(C(=O)c2ccc(NC(=O)c3ccccc3-c3ccccc3)cc2)CCC1(F)F [Example 122, (Z)-4'-[[4,4-difluoro-5-(N-methylcarbamoylmethylene)-2,3,4,5-tetrahydro-1H-1-benzazepin-1-yl]carbonyl]-2-phenylbenzanilide] | 355 | 8.94 | 
O=C(Nc1ccc(C(=O)N2CCC(F)(F)/C(=C\C(=O)N3CCC(N4CCCCC4)CC3)c3ccccc32)cc1)c1ccccc1-c1ccccc1 [Example 83, (Z)-4'-[[4,4-difluoro-5-[[(4-piperidinopiperidino)carbonyl]piperidyl)carbamoyl]methylene]-2,3,4,5-tetrahydro-1H-1-benzazepin-1-yl]carbonyl]-2-phenylbenzanilide hydrochloride] | 234 | 8.47 | 
Cl.O=C(Nc1ccc(C(=O)N2CCC(F)(F)/C(=C\CN3CCCC3)c3ccccc32)cc1)c1ccccc1-c1ccccc1 [Example 81, (Z)-4'-[[4,4-difluoro-5-[2-(1-pyrrolidinyl)ethylidene]-2,3,4,5-tetrahydro-1H-1-benzazepin-1-yl]carbonyl]-2-phenylbenzanilide hydrochloride] | 724 | 8.64 | 
CN1CCN(C/C=C2/c3ccccc3N(C(=O)c3ccc(NC(=O)c4ccccc4-c4ccccc4)cc3)CCC2(F)F)CC1.Cl.Cl [Example 80, (Z)-4'-[[4,4-difluoro-5-[2-(4-methyl-1-piperazinyl)ethylidene]-2,3,4,5-tetrahydro-1H-1-benzazepin-1-yl]carbonyl]-2-phenylbenzanilide dihydrochloride] | 363 | 8.50 | 
Cc1cccc(-c2ccccc2C(=O)Nc2ccc(C(=O)N3CCC(F)(F)/C(=C\C(=O)N4CCN(C)CC4)c4ccccc43)cc2)c1.Cl [Example 19, (Z)-4'-[[4,4-difluoro-5-(4-methyl-1-piperazinyl)carbonylmethylene-2,3,4,5-tetrahydro-1H-1-benzazepin-1-yl]carbonyl]-2-(3-methylphenyl)benzanilide hydrochloride] | 2630 | 8.84 | 
CN(C)C(=O)/C=C1/c2ccccc2N(C(=O)c2ccc(NC(=O)c3ccccc3-c3ccccc3)cc2)CCC1(F)F [Example 129, (Z)-4'-[[5-(N,N-dimethylcarbamoylmethylene)-4,4-difluoro-2,3,4,5-tetrahydro1H-1-benzazepin-1-yl]carbonyl]-2-phenylbenzanilide] | 479 | 8.24 | 
O=C(/C=C1/c2ccccc2N(C(=O)c2ccc(NC(=O)c3ccccc3-c3ccccc3)cc2)CCC1(F)F)NCCO [Example 134, (Z)-4'-[[4,4-difluoro-5-[N-(2-hydroxyethyl)carbamoylmethylene]-4,4-difluoro-2,3,4,5-tetrahydro-1H-1-benzazepin-1-yl]carbonyl]-2-phenylbenzanilide] |  | 8.94 | Binding activity on arginine vasopressin V1 receptor (pKi) [1, 3]: 9.50
